US20120301468A1, “ANTI-MN ANTIBODIES AND METHODS OF USING SAME” (BAYER HEALTHCARE LLC, priority 2005, published 2012)

What was measured:
[1] = test system: mitochondria-associated CA5; assay: Binding to CA5
[2] = test system: MN-expressing cells (PC3 mm2); assay: Spindle formation / tubulin staining, Pc3 mm2; type: cell-based, human; conditions: tubulin stained with fluorescence labeled antibody
Text: (§1) The cytotoxic drug MMAE delivered by 3ee9/MMAE is a tubulin inhibitor that prevents spindle formation during cell mitosis resulting in G2/M arrest. The tubulin is stained with florescence labeled antibody. […] These studies confirmed that the antibody drug conjugate 3ee9/MMAE kills cell through targeted tubulin disruption.

[3] = test system: MN non-expressing cells (H460); assay: Spindle formation / tubulin staining, H460; type: cell-based; conditions: tubulin stained with fluorescence labeled antibody
Text: as §1

[4] = test system: HT-29 human CRC xenograft; assay: HT-29 subcutaneous xenograft model; type: in vivo, athymic NCr (nu/nu) mice; conditions: for TGI: end of dosing
Description: When tumors reached an average size of ˜120 mg (5 days), treatment was initiated. […] In addition, MMAE was assessed as a free drug at a dose of 0.1, 0.2 and 1 mg/kg. The 0.1 and 0.2 mg/Kg doses of MMAE represent equivalent amounts of this drug to those present on 5 and 10 mg/Kg 3ee9/MMAE respectively.
Anti-tumor effect of 3ee9/MMAE was also assessed in varying schedules, i.e., once a week dosing for total of two doses (Q7Dx2, FIG. 20) and a single dose at the time of staging (Q1Dx1, FIG. 21). In both schedules, 3ee9/MMAE was dosed at 0.625, 1.25, 2.5, 5 and 10 mg/kg.

[5] = test system: HCT-15 multi-drug resistant (P-gp) CRC xenograft; assay: HCT-15 multi-drug resistant xenograft model; type: in vivo, NCr nu/nu mice; conditions: HCT-15 MDR model
Description: To examine the effect of 3ee9/MMAE in a multi-drug resistance model, female NCr nu/nu mice were implanted subcutaneously (s.c.) with 5×10^6 HCT-15 cells. HCT-15 is a multi-drug resistant (MDR) line that over-expresses P-glycoprotein (P-gp). […] 3ee9/MMAE, Taxol, and Gemcitabine were administered when mice had established tumors with mean weight of ˜150 mg. Gemcitabine, a pyrimidine analog that is not a P-gp substrate was used as a positive control.

tubulin in HT-29 tumors = assay: In vivo mechanism of action, immunohistochemistry of HT-29 tumors; design: species or system athymic mice
Description: To explore the in vivo mechanism of action of 3ee9/MMAE, tumors were implanted subcutaneously at right flank of the mice with 5×10^6 HT-29 cells. Eight days later, athymic mice bearing HT-29 tumors were treated with vehicle or with 3ee9/MMAE at 1.25 and 5 mg/kg (Q1Dx1). Tumors were collected and fixed in formalin 4 hours and 1, 3 and 5 hours following administration of 3ee9/MMAE. Samples were then embedded in paraffin, sectioned at 5 μm, de-paraffinized, and stained using standard protocol for fluorescent immunohistochemistry of human tissues using mouse antibodies: Anti-α/β-tubulin, Anti-phospho-Histone H3, and DNA. The slides were then observed under a fluorescent microscope, and representative images were taken through three separate color channels.
3ee9/MMAE had little effect in affecting cell mechanism in the 4 hr samples. […] In addition, decreased level of tubulin staining could be observed. These effects were then highly amplified in the day 3 and day 5 samples.

[6] = test system: MN-negative MIAPaca2 cells; assay: In vitro cytotoxicity, MIAPaca2
MN = MN (Homo sapiens, UniProt Q16790); assay: Immunoprecipitation of biotinylated cell surface proteins; type: binding; design: incubated with cell lysates of MN+ (Pc3 mm2) and MN− (DLD-1) cell lines that had been selectively labeled with biotin; endogenous in cells; host or cells: PC-3 mm2 (MN+); DLD-1 as the MN- control; conditions: Table 4 profile
Description: To further explore specificity, various candidate antibodies including the antibody portion of 3ee9/MMAE (3ee9) and the reference antibody G250 were incubated with cell lysates of MN+ (Pc3 mm2) and MN− (DLD-1) cell lines that had been selectively labeled with biotin. Complexes between the antibodies and cellular proteins were immuno-precipitated and the co-precipitated antigens visualized using immunoblots developed with enzyme-linked streptavidin.

## 3ee9/MMAE: human anti-MN IgG1 antibody 3ee9 conjugated to Monomethylauristatin E (MMAE)
[1]
  binding to CA5: Binding to mitochondria-associated CA5 was observed
[2]
  effect on spindle formation: fragmented fibers resulting from tubulin binding with MMAE and prevention of normal spindle formation
[3]
  effect on spindle formation: No activity
[4]; HT-29, 0.625 mg/kg Q4Dx3
  TGI: 54%
[4]; HT-29, 0.625 mg/kg, Q1D × 1
  % Inhibition (1-T/D)*100 (Day 18): 42%
  Percent Regressions: 0%
[4]; HT-29, 0.625 mg/kg, Q4D × 3
  % Inhibition (1-T/D)*100 (Day 18): 54%
  Percent Regressions: 0%
[4]; HT-29, 0.625 mg/kg, Q7D × 2
  % Inhibition (1-T/D)*100 (Day 18): 48%
  Percent Regressions: 0%
[4]; HT-29, 1.25 mg/kg Q4Dx3
  animals showing regressions: 20%
  TGI: 72%
[4]; HT-29, 1.25 mg/kg, Q1D × 1
  % Inhibition (1-T/D)*100 (Day 18): 48%
  Percent Regressions: 0%
[4]; HT-29, 1.25 mg/kg, Q4D × 3
  % Inhibition (1-T/D)*100 (Day 18): 72%
  Percent Regressions: 2%
[4]; HT-29, 1.25 mg/kg, Q7D × 2
  % Inhibition (1-T/D)*100 (Day 18): 71%
  Percent Regressions: 0%
[4]; HT-29, 2.5 mg/kg Q4Dx3
  regressions: 90%
  TGI: 97%
[4]; HT-29, 2.5 mg/kg, Q1D × 1
  % Inhibition (1-T/D)*100 (Day 18): 93%
  Percent Regressions: 5%
[4]; HT-29, 2.5 mg/kg, Q4D × 3
  % Inhibition (1-T/D)*100 (Day 18): 97%
  Percent Regressions: 9%
[4]; HT-29, 2.5 mg/kg, Q7D × 2
  % Inhibition (1-T/D)*100 (Day 18): 92%
[4]; HT-29, 5 mg/kg Q4Dx3
  TGI: 100%
[4]; HT-29, 5 mg/kg, Q1D × 1
  % Inhibition (1-T/D)*100 (Day 18): 98%
  Percent Regressions: 8%
[4]; HT-29, 5 mg/kg, Q4D × 3
  % Inhibition (1-T/D)*100 (Day 18): 100%
  Percent Regressions: 10%
[4]; HT-29, 5 mg/kg, Q7D × 2
  % Inhibition (1-T/D)*100 (Day 18): 96%
  Percent Regressions: 7%
[4]; HT-29, 10 mg/kg Q4Dx3
  TGI: 100%
[4]; HT-29, 10 mg/kg, Q1D × 1
  % Inhibition (1-T/D)*100 (Day 18): 100%
  Percent Regressions: 10%
[4]; HT-29, 10 mg/kg, Q4D × 3
  % Inhibition (1-T/D)*100 (Day 18): 100%
  Percent Regressions: 10%
[4]; HT-29, 10 mg/kg, Q7D × 2
  % Inhibition (1-T/D)*100 (Day 18): 100%
  Percent Regressions: 10%
[4]; HT-29, 0.625 to 10 mg/kg i.v. Q4Dx3
  tolerability: well tolerated at all doses examined
[4]; HT-29, 5 and 10 mg/kg Q4Dx3
  responses: 100%
[4]; HT-29, Q7Dx2 and Q1Dx1, 0.625 to 10 mg/kg
  anti-tumor effect in varying schedules: highly effective in inhibiting the growth
[4]; HT-29 human colo-rectal cancer xenograft model
  anti-tumor effects: anti-tumor effects were seen
[5]
  anti-tumor effect: failed to produce any significant anti-tumor effect
Tubulin in HT-29 tumors; 5 mg/kg Q1Dx1, day 5
  cells affected by treatment in tumors: almost all cells
Tubulin in HT-29 tumors; 1.25 and 5 mg/kg Q1Dx1, 4 hr samples
  effect on cell mechanism in tumors: little effect
Tubulin in HT-29 tumors; 1.25 and 5 mg/kg Q1Dx1, day 1
  G2/M arrest, spindle and tubulin staining in tumors: increased numbers of cells were in G2/M arrest
[6]; MIAPaca2 (MN−)
  cytotoxicity: not to MN-negative MIAPaca2 cells
[6]; doses as high as 1 uM
  killing of MN-negative cells: Less than 10%
[6]; read-out: Cytotoxicity: MN− (ec50), MN− cells
  EC50: > 1 µM
MN
  Immunoprecipitation: specific
